Assay type in all cases: in vivo, human
Series [1] relates to eosinophils per HPF observed in GI biopsies. Put plainly: Phase 2 study in EG and/or EGE: change in eosinophils per HPF in GI biopsies. The text has this: (§1) This study was a randomized, double-blind, placebo-controlled study. […] All patients reported an average weekly score of ≥3 (on a scale from 0-10), recorded for either abdominal pain, diarrhea and/or nausea on a Patient Reported Outcome (PRO) questionnaire during at least 2 out of 3 weeks of PRO collection. A minimum of four questionnaires were completed each qualifying week.
Further, all patients either failed or had disease symptoms not adequately controlled by standard-of-care treatments for EG/EGE symptoms, which could include proton pump inhibitors (PPIs), systemic or topical corticosteroids, and/or diet, among others.
In addition, each patient was confirmed to have EG and/or EGE by esophagogastroduodenoscopy (EGD), as defined by eosinophilia of the gastric mucosa ([…] eosinophils/HPF in 5 HPFs) and/or eosinophilia of the duodenal mucosa (30 eosinophils/HPF in 3 HPFs) from the EGD performed during the screening period, without any other cause for the gastric eosinophilia (e.g., parasitic or other infection or malignancy). For more details, see ClinicalTrials.gov Identifier NCT03496571.
(§2) 65 patients were enrolled in 3 arms. In the first arm, 22 patients received anti-Siglec-8 antibody (non-fucosylated IgG1 antibody HEKA) in the following doses: 0.3 mg/kg for first dose, and 1.0 mg/kg for second, third, and fourth doses (“low dose”). In the second arm, 22 patients received the anti-Siglec-8 antibody in the following doses: 0.3 mg/kg for first dose, 1.0 mg/kg for second dose, and 3.0 mg/kg for the third and fourth doses (“high dose”). Patients in the third arm received placebo. All doses were provided monthly.
The primary endpoint was the percentage of change in eosinophils per HPF observed in GI biopsies before and after receiving treatment or placebo. Mean percent change in eosinophil counts was calculated by comparing count at week 14 of treatment versus baseline count.

Series [2] deals with patients with eosinophilic esophagitis (EoE). Put plainly: Phase 2 study: exploratory assessment of comorbid eosinophilic esophagitis (EoE). The method, then: as §2
Secondary endpoints included the percentage of responders to treatment and change in symptoms as reported by PRO questionnaire (both comparing week 13-14 vs. baseline), as well as an exploratory assessment of comorbid eosinophilic esophagitis (EoE). Symptoms reported by the PRO questionnaire included abdominal pain, nausea, diarrhea, vomiting, fullness before finishing a meal, loss of appetite, abdominal cramping, and bloating. Each of the 8 symptoms was measured on a scale from 0 to 10 (with 80 total points possible). This questionnaire captured the most significant symptoms of EG/EGE. Treatment responder was defined as >75% reduction in tissue biopsy eosinophil counts and >30% reduction in Total Symptom Score (TSS) from the PRO questionnaire at weeks 13-14. […]

The subject of series [3] is patients with eosinophilic gastritis (EG) and/or eosinophilic gastroenteritis (EGE). Briefly: Phase 2 study in EG and/or EGE: safety and tolerability.
Excerpt: This Example describes results from a Phase 2 examining treatment of patients with eosinophilic gastritis (EG) and/or eosinophilic gastroenteritis (EGE) using a humanized, non-fucosylated IgG1 monoclonal anti-Siglec-8 antibody (HEKA). Specifically, this study evaluated the safety and tolerability of anti-Siglec-8 antibody in patients with EG and/or EGE.
as §2

Series [4] has the same test system. Put plainly: Phase 2 open-label extension study: infusion-related reactions with corticosteroid premedication. The following applies: 58 patients to date; 80 mg oral prednisone 12-24 hours prior to first infusion, plus solumedrol, cetirizine, acetaminophen about 1 hour prior; 1 mg/kg first infusion then 3 mg/kg every 4 weeks. The method, then:
Approximately 60 patients are enrolled in this extension study, based on the maximum enrollment from a Phase 2 study. Patients who complete the Phase 2 study have the option to receive anti-Siglec-8 antibody in an open-label fashion.
1 mg/kg anti-Siglec-8 antibody (non-fucosylated IgG1 antibody HEKA) is administered for the first infusion, followed by a dose of 3 mg/kg administered every 4 weeks thereafter. Patients receive up to 8 infusions of anti-Siglec-8 antibody administered every 28(±3) days.
Prior to the first infusion of AK002, 80 mg oral prednisone is given 12-24 hours prior to infusions and solumedrol (100 mg IV), cetirizine (10 mg oral), and acetaminophen (975-1000 mg oral) are given about 1 hour prior to infusion.
In this ongoing extension study, corticosteroid has been administered 12-24 hours prior to each of the first anti-Siglec-8 antibody dose (as described above).

Series [5] has the same test system. Briefly: Phase 2 study in EG and/or EGE: treatment responders. The method, then:
as §2
(§3) Secondary endpoints included the percentage of responders to treatment and change in symptoms as reported by PRO questionnaire (both comparing week 13-14 vs. baseline), as well as an exploratory assessment of comorbid eosinophilic esophagitis (EoE). Symptoms reported by the PRO questionnaire included abdominal pain, nausea, diarrhea, vomiting, fullness before finishing a meal, loss of appetite, abdominal cramping, and bloating. Each of the 8 symptoms was measured on a scale from 0 to 10 (with 80 total points possible). This questionnaire captured the most significant symptoms of EG/EGE. Treatment responder was defined as >75% reduction in tissue biopsy eosinophil counts and >30% reduction in Total Symptom Score (TSS) from the PRO questionnaire at weeks 13-14. These endpoints were designed to show (1) tissue eosinophil depletion, (2) symptom improvement, and (3) that these effects occurred in the same individuals.

The test system is the same in series [6]. Briefly: Phase 2 study in EG and/or EGE: Total Symptom Score (TSS) from PRO questionnaire.
Excerpt: as §1, §2, §3

This is an account of results in patent US20220257758A1, “METHODS OF ADMINISTERING ANTI-SIGLEC-8 ANTIBODIES AND CORTICOSTEROIDS” (priority 2019, published 2022).

“Also recorded” adds a separate entry of the source.

With “anti-Siglec-8 antibody: humanized, non-fucosylated IgG1 monoclonal anti-Siglec-8 antibody (HEKA); VH SEQ ID NO: 6, VL SEQ ID NO: 16; heavy chain SEQ ID NO: 75, light chain SEQ ID NO: 76”, in series [1] (37 out of 39 patients receiving antibody), the “patients with gastric and duodenal eosinophil counts of <30/HPF” value is on record as 95%. Moreover, in series [1] (both treatment groups, baseline to weeks 13-14, p-value <0.0001), the “mean reduction in eosinophil count” value is given as 95%. Moreover, the “reduction in eosinophil count” value came out at 97% in series [1] (high dose arm (0.3, 1.0, 3.0, 3.0 mg/kg monthly), baseline to weeks 13-14) and 95% in series [1] (low dose arm (0.3, 1.0, 1.0, 1.0 mg/kg monthly), baseline to weeks 13-14). In addition, in series [2] (patients with EoE), the improvement in dysphagia result is “substantial improvement in dysphagia”. In addition, the “EoE patients showing <5 eosinophils per HPF” value in series [2] (week 14 of treatment, 13 of 14 EoE patients) worked out at 93%. Also, in series [3] (Phase 2 study), the “other significant AEs” value was “no other significant adverse events (AEs) were observed”. Moreover, the tolerability entry in series [3] (Phase 2 study) is “generally well tolerated”. Besides, the “IRRs that were mild to moderate” value in series [3] (e.g. flushing, feeling of warmth, headache, nausea, dizziness) is recorded as 95%. Further, the “patients with at least 1 treatment-emergent adverse event (AE)” value in series [3] (patients receiving antibody) came out at 91%. In addition, in series [3] (was an IRR, patient recovered within 24 hours with no further sequelae), the “drug-related serious AE (number)” value is on record as “One”. In addition, the IRRs observed entry in series [4] is “no IRRs have been observed”. Also, the percentage of responders was found to be 69% in series [5] (all treated patients, >75% reduction in tissue eosinophils and >30% reduction in TSS at weeks 13-14, p-value 0.0008); 70% in series [5] (high dose arm, weeks 13-14); 68% in series [5] (low dose arm, weeks 13-14). For the same substance, the “improvement across symptoms of the PRO questionnaire” value in series [6] (8 symptoms, baseline to end of treatment) is “improvement across all symptoms measured; also recorded: Improvements were observed across all symptoms”. Besides, the “mean reduction in TSS” value in series [6] (both treatment groups, baseline to weeks 13-14, p-value 0.0012) is reported as 54%. Further, the “reduction in TSS” value in series [6] (high dose arm, baseline to weeks 13-14) is 58%; in series [6] (low dose arm, baseline to weeks 13-14), 49%. Besides, the improvements in symptoms entry in series [6] (on day 1 after the first infusion and maintained throughout the study) was “statistically significant improvements in symptoms”.
